Source: patent US20250281498A1, “FUSED AMINO PYRIMIDINE COMPOUNDS FOR TREATMENT OF SYNUCLEINOPATHIES AND TDP-43 PROTEINOPATHIES” (Ovid Therapeutics Inc., priority 2024, published 2025)

Target: T1, KCC3 (Homo sapiens, UniProt Q9UHW9)
T1 construct: expressed in transfected cells; host or cells: HEK-293
T1 sequence (Q9UHW9 1-1150): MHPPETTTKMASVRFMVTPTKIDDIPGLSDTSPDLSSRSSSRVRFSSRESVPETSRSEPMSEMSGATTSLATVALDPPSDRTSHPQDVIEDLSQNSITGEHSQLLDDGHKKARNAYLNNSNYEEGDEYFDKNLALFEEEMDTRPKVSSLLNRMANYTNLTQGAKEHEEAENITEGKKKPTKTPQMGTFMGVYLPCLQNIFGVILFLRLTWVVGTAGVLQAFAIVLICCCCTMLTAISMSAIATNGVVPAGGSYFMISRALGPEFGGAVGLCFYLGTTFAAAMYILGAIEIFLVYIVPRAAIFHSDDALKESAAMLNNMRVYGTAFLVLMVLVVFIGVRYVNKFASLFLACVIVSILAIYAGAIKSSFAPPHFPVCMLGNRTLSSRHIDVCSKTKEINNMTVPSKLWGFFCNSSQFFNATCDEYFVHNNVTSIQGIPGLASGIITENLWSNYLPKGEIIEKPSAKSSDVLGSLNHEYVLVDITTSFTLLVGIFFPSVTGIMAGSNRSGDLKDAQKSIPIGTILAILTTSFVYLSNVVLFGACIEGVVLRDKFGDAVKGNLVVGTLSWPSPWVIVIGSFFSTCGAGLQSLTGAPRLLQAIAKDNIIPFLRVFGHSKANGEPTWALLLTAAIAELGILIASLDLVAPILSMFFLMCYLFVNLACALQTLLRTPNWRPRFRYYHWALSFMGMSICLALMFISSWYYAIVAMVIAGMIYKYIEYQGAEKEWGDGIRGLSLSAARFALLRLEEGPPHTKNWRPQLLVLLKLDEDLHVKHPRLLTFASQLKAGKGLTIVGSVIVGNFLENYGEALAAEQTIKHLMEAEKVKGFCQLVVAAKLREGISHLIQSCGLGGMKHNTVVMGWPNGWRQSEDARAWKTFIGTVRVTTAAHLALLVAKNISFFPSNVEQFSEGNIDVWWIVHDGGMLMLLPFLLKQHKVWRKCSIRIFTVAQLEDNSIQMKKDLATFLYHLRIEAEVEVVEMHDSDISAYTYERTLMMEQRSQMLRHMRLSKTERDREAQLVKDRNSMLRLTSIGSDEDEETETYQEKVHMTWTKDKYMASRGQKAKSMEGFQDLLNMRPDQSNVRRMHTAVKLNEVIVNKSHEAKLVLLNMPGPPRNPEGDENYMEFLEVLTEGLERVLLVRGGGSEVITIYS
Assay: TI+ flux assay, HEK-293 cells expressing KCC3
Format: cell-based
Conditions: read-out: concentration at which effects on KCC3 were seen (EC50 chart FIG. 1G)
Procedure: FLIPR TI Flux assay. HEK-293 cells were washed with HBSS, and then incubated with loading buffer containing TI sensitive fluorescent dye (https://www.moleculardevices.com), 20 μM bumetanide 20 μM ouabain and 2.5 mM probenecid for 1 h at room temperature (RT) under control conditions or with drugs in the dark using a FlexStation 3 microplate reader (Molecular Devices) and imaged […] for 30 min. Stimulus buffer was added containing 5 mM K^+/0.5 mM Tl^+ and cells were imaged every 1.5 over a 190 second time course The initial rate Tl^+ uptake (Relative Fluorescence Units (RFU) per second) was determined following addition of the stimulus buffer as outlined previously (Conway et al., 2017, supra) (Lee et al., 2022, supra).
Several studies have shown that the activity and plasma membrane accumulation of KCC2 is potentiated via phosphorylation of S940, a process mediated by the activity of protein kinase C and protein phosphatase 1 (Lee et al., 2011, supra; Lee et al., J Biol Chem 282, 29777-29784 (2007); Moore et al., Proc. Natl. Acad. Sci. U.S.A. 115, 10166-10171 (2018); Moore et al., Trends Neurosci. 40, 555-571 (2017); Silayeva et al., Proc. Natl. Acad. Sci. U.S.A. 112, 3523-3528 (2015)). […] Compared to KCC2, effects on KCC3, KCC4, and NKCC1 were only seen at concentrations more than 35-fold that of KCC2 (>100 μM) (FIG. 1G).

With C[C@@H]1CN(c2nc3c(c(Nc4ccc(C5CCCCC5)cc4)n2)COC3)CCO1 [Compound A, (R)—N-(4-cyclohexylphenyl)-2-(2-methylmorpholino)-5,7-dihydrofuro[3,4-d]pyrimidin-4-amine] as the molecule, how does the EC50 read?
Its EC50 is over 100 µM.
